Data taken from PubChem BioAssay (NCI).
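Following 48 hours of exposure in 96-well plates, responses at five concentrations were used to interpolate endpoints linearly. TGI is the concentration that stops growth completely.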

Key:
Assay in all cases: NCI tumour cell line growth inhibition, 48 h
[1] = tested on: CCRF-CEM leukemia
[2] = tested on: UACC-257 melanoma
[3] = tested on: MDA-MB-231 breast
[4] = tested on: BT-549 breast
[5] = tested on: HCT-15 colon
[6] = tested on: OVCAR-3 ovarian
[7] = tested on: DU-145 prostate
[8] = tested on: MDA-N
[9] = tested on: KM12 colon
[10] = tested on: MALME-3M melanoma
[11] = tested on: TK-10 renal
[12] = tested on: MCF7 breast
[13] = tested on: SNB-19 CNS
[14] = tested on: RXF 393 renal
[15] = tested on: OVCAR-4 ovarian
[16] = tested on: HCC-2998 colon
[17] = tested on: MOLT-4 leukemia
[18] = tested on: SK-MEL-5 melanoma
[19] = tested on: UO-31 renal
[20] = tested on: MDA-MB-435
[21] = tested on: LOX IMVI melanoma
[22] = tested on: HT29 colon
[23] = tested on: SK-MEL-2 melanoma
[24] = tested on: SF-268 CNS
[25] = tested on: ACHN renal
[26] = tested on: K-562 leukemia
[27] = tested on: OVCAR-8 ovarian
[28] = tested on: SW-620 colon
[29] = tested on: HCT-116 colon
[30] = tested on: HS 578T breast
[31] = tested on: COLO 205 colon
[32] = tested on: SK-OV-3 ovarian
[33] = tested on: SNB-75 CNS
[34] = tested on: UACC-62 melanoma
[35] = tested on: A498 renal
[36] = tested on: HOP-62 NSCLC
[37] = tested on: NCI-H226 lung
[38] = tested on: A549 NSCLC
[39] = tested on: HL-60(TB) leukemia
[40] = tested on: M14 melanoma
[41] = tested on: NCI-H460 lung
[42] = tested on: OVCAR-5 ovarian
[43] = tested on: PC-3 prostate
[44] = tested on: IGROV1 ovarian
[45] = tested on: NCI/ADR-RES ovarian
[46] = tested on: EKVX NSCLC
[47] = tested on: NCI-H522 lung
[48] = tested on: SF-295 CNS
[49] = tested on: RPMI-8226 leukemia
[50] = tested on: NCI-H23 lung
[51] = tested on: U251 CNS
[52] = tested on: SR leukemia
[53] = tested on: 786-0 renal
[54] = tested on: SN12C renal
[55] = tested on: SK-MEL-28 melanoma
[56] = tested on: T-47D breast

Measured: TGI

O=C(O)c1c(-c2ccccc2)c(=O)[nH]c2ccccc12
> 100 µM: all assays above
